Test [1] addresses T1, HLA A*0201 on CEM.T2 cell line (Homo sapiens, UniProt P04439, D140Y/D185E/D98H/E176V/E277Q/G131W/G231S/I119V/I121R/I166T/I218V/L300P/L318F/N151K/N90K/P208A/P217A/Q86G/Q94H/R138H/R169H/T345S).
T1 construct: This cell line expresses HLA A*0201 but is deficient for TAP transporter; endogenous in cells; host or cells: CEM.T2 (T2) cell line
The test can be described thus: Cellular binding assay, HLA stabilization on CEM.T2 cells. The format is cell-based. Particulars: for CEM.T2 % Binding: 100 μM peptide, 37° C. for 4 h, FACS anti HLA-A2, relative to HBV positive control peptide. How it is done: The CEM.T2 cell line (T2) is defective in the processing of proteins for presentation by MHC class 1 molecules. This cell line expresses HLA A*0201 but is deficient for TAP transporter. T2 is classically used to assess the Peptide/HLA-A*0201 Complex Stability[H. W. Nijman et al., 1993]
For HLA-A2*0201 stabilization, T2 cells (2×10^5/well) were incubated in serum-free RPMI (Gibco®-France) with 100 μM of selected peptide, at 37° C. for 4 h. Cells were washed two times with PBS supplemented with 1% BSA and stained with fluorescein isothiocyanate-conjugated anti HLA-A2 (Clone BB7.2) (BD Bioscience Pharmingen-France-) at 4° C. for 45 min. After 3 washes, cells were fixed in PBS supplemented with 2% paraformaldehyde and analyzed by FACS (FACScan, BD Bioscience). The percentage of peptide binding was calculated as follows: % Binding={(MFI peptide sample−MFI Neg control)/(MFI Pos control−MFI Neg control)}×100
Negative control was done without peptide.

For test [2], the target named is T2, HLA-A*0201 (Homo sapiens, UniProt P04439, D140Y/D185E/D98H/E176V/E277Q/G131W/G231S/I119V/I121R/I166T/I218V/L300P/L318F/N151K/N90K/P208A/P217A/Q86G/Q94H/R138H/R169H/T345S). Put plainly: iScore calculation (iTOPIA system software). Particulars: multiparametric score of binding, off-rate and affinity.
Test [3] has as its target T1, HLA A*0201 on CEM.T2 cell line. Put plainly: Cellular dissociation assay on CEM.T2 cells. It is filed as cell-based. Particulars: after Brefeldin A 1 h and 3 h in serum-free RPMI at 37° C. (4 h). How it is done: Cellular Dissociation Assay
After HLA-A2*0201 stabilization with peptides at 37° C. for 4 h, T2 cells were incubated for 1 h, in serum-free RPMI containing Brefeldin A (10 μg/ml), an inhibitor of the transport of secretory and lysosomal proteins [G. J. Strous et al., 1993]. After 3 washes, T2 cells were incubated for 3 h in serum-free RPMI at 37° C. Binding was then measured by FACS and after 4 h incubation. Percentage of Residual Binding (% RB) was calculated as follows: […]

The target of test [4] is T2, HLA-A*0201. The test can be described thus: biochemical. It is filed as binding.
Test [5] addresses T2, HLA-A*0201. The test can be described thus: iTOPIA EDS MHC peptide binding assay. To be noted: HLA-A*0201 monomer, relative to positive control peptide, 21° C. for 18 h. From the text:
MHC peptide binding assay using iTOPIA EDS
Microtiter 96 well plates containing HLA class I MHC monomer loaded with the human β2-microglobulin and a “placeholder” peptide were used to evaluate peptide binding, affinity, and off-rate.
The 502 nectin4 nonapeptides were first evaluated for their ability to bind to each MHC molecule in the peptide binding assay. In this assay, the placeholder peptides were stripped from the MHC class I monomer complexes coated on plastic, which leaves the MHC class I heavy chain available as a binding partner for candidate peptides in the presence of human β2-microglobulin.
Peptide binding was performed at 21° C. for 18 h. Revelation was done using an anti HLA-ABC-FITC mAb that binds to refolded MHC complex conformation. The relative fluorescent intensity was read using a fluorimeter (Molecular Devices, SpectraMax Gemini, Sunnyvale, Calif., USA).
Peptides with a binding>30% of the positive control peptide were selected as “binder” and subsequently analyzed for affinity (ED50) and off-rate (T1/2).

Setting [6] is: peptide concentration giving 50% of optimal binding, 10^−4 to 10^−9 M, 21° C. for 18 h, read-out: Affinity (ED50).

Where two headings read alike, the source gives them in different places. Residues, ends and D or L forms follow the SMILES beside them.

As for “122: nectin4 nonapeptide with a low iScore; the number represents where the peptide starts in the protein sequence (EGEYECRVS; UniProt Q96NY8 122-130, looked up, fragment) [Peptide 122]”, the “HLA-A*0201 class I level on T2 cells” value in test [1] (flow cytometry, FIG. 3A and 3B) is recorded as “does not increase HLA level on T2 cells”. The iScore result with HLA-A*0201 [2] was “low”.

For the compound `CC(C)C[C@H](NC(=O)[C@H](CC(C)C)NC(=O)[C@H](CC(C)C)NC(=O)[C@@H](N)CC(C)C)C(=O)N[C@@H](C)C(=O)N[C@@H](CO)C(=O)N[C@@H](Cc1ccccc1)C(=O)N[C@H](C(=O)NCC(=O)O)[C@@H](C)O` [Peptide 19] (H-LLLLASFTG-OH; N-terminus and C-terminus assumed), the “CEM.T2 % Binding” value in test [1] is given as 17%. In addition, in test [3], the “CEM.T2 % Residual Binding” value stood at 0%. Besides, on HLA-A*0201 [2], the iScore was 0.659. Besides, the EC50 at HLA-A*0201 [4] (setting [6]) is 60 nM. Also, the “% Binding” value on HLA-A*0201 [5] was found to be 75%.

Turning to `CC(C)[C@H](NC(=O)[C@@H](NC(=O)[C@@H](NC(=O)[C@@H](NC(=O)[C@@H](NC(=O)[C@H](CC(=O)O)NC(=O)[C@H](CO)NC(=O)[C@@H](NC(=O)CN)[C@@H](C)O)C(C)C)C(C)C)[C@@H](C)O)C(C)C)C(=O)O` [Peptide 35] (H-GTSDVVTVV-OH; N-terminus and C-terminus assumed), in test [1], the “CEM.T2 % Binding” value is given as 60%. The “CEM.T2 % Residual Binding” value in test [3] is on record as 0%. At HLA-A*0201 [2], the iScore is recorded as 0.539. Further, the EC50 on HLA-A*0201 [4] (setting [6]) is 300 nM. Moreover, on HLA-A*0201 [5], the “% Binding” value worked out at 63%.

In the case of `CC(C)C[C@H](NC(=O)CNC(=O)[C@H](Cc1ccc(O)cc1)NC(=O)[C@H](CCCCN)NC(=O)[C@H](CO)NC(=O)[C@H](Cc1c[nH]cn1)NC(=O)[C@H](CC(C)C)NC(=O)[C@H](CC(C)C)NC(=O)[C@H](C)N)C(=O)O` [Peptide 80] (H-ALLHSKYGL-OH; N-terminus and C-terminus assumed), on HLA-A*0201 [2], the iScore is given as 0.815. The EC50 was approximately 100 nM on HLA-A*0201 [4] (FIG. 2A, peptide concentration 10^−4 to 10^−9 M, read-out: estimated dose to reach 50% maximal binding (ED50)) and 1000 nM at HLA-A*0201 [4] (setting [6]). In addition, the “% Binding” value at HLA-A*0201 [5] amounted to 87%.

In the case of `CC(C)C[C@H](NC(=O)[C@H](CCCNC(=N)N)NC(=O)[C@H](C)NC(=O)[C@H](CCC(N)=O)NC(=O)[C@@H](N)Cc1ccccc1)C(=O)N[C@@H](CCCNC(=N)N)C(=O)N[C@@H](CC(C)C)C(=O)N[C@@H](CCCNC(=N)N)C(=O)N[C@H](C(=O)O)C(C)C` [Peptide 137] (H-FQARLRLRV-OH; N-terminus and C-terminus assumed), the “CEM.T2 % Binding” value in test [1] is 30%. The “CEM.T2 % Residual Binding” value in test [3] is reported as 72%. Also, the iScore at HLA-A*0201 [2] was 0.66. On HLA-A*0201 [5], the “% Binding” value stood at 69%.

Consider `CC(C)C[C@H](NC(=O)[C@H](Cc1c[nH]cn1)NC(=O)[C@H](Cc1ccccc1)NC(=O)[C@H](CCC(=O)O)NC(=O)[C@H](CO)NC(=O)[C@@H](NC(=O)[C@@H](NC(=O)[C@H](C)N)C(C)C)[C@@H](C)O)C(=O)N[C@H](C(=O)O)C(C)C` [Peptide 203] (H-AVTSEFHLV-OH; N-terminus and C-terminus assumed), for which the “CEM.T2 % Binding” value in test [1] worked out at 48%. Also, the “CEM.T2 % Residual Binding” value in test [3] was 0%. Moreover, the iScore at HLA-A*0201 [2] was 0.533. The EC50 on HLA-A*0201 [4] (setting [6]) came to 400 nM. Besides, on HLA-A*0201 [5], the “% Binding” value came to 64%.

`CSCC[C@H](NC(=O)[C@@H](N)CO)C(=O)N[C@@H](CC(N)=O)C(=O)NCC(=O)N[C@@H](CCC(N)=O)C(=O)N1CCC[C@H]1C(=O)N[C@@H](CC(C)C)C(=O)N[C@H](C(=O)N[C@@H](CS)C(=O)O)[C@@H](C)O` [Peptide 215] (H-SMNGQPLTC-OH; N-terminus and C-terminus assumed): the “CEM.T2 % Binding” value in test [1] was 21%. Moreover, the “CEM.T2 % Residual Binding” value in test [3] turned out to be 0%. Besides, on HLA-A*0201 [2], the iScore is listed as 0.689. Further, on HLA-A*0201 [4] (setting [6]), the EC50 turned out to be 700 nM. At HLA-A*0201 [5], the “% Binding” value is 81%.

As to `CC[C@H](C)[C@H](NC(=O)[C@@H](N)Cc1c[nH]cn1)C(=O)N[C@@H](CC(C)C)C(=O)N[C@@H](Cc1c[nH]cn1)C(=O)N[C@H](C(=O)N[C@@H](CO)C(=O)N[C@@H](Cc1ccccc1)C(=O)N[C@@H](CC(C)C)C(=O)N[C@@H](C)C(=O)O)C(C)C` [Peptide 238] (H-HILHVSFLA-OH; N-terminus and C-terminus assumed), in test [1], the “CEM.T2 % Binding” value was 37%. Moreover, the “CEM.T2 % Residual Binding” value in test [3] is 66%. On HLA-A*0201 [2], the iScore is 1.426. Besides, on HLA-A*0201 [4] (setting [6]), the EC50 was found to be 60 nM. In addition, the “% Binding” value on HLA-A*0201 [5] amounted to 87%.

With `CC[C@H](C)[C@H](N)C(=O)N[C@@H](CC(C)C)C(=O)N[C@@H](Cc1c[nH]cn1)C(=O)N[C@H](C(=O)N[C@@H](CO)C(=O)N[C@@H](Cc1ccccc1)C(=O)N[C@@H](CC(C)C)C(=O)N[C@@H](C)C(=O)N[C@@H](CCC(=O)O)C(=O)O)C(C)C` [Peptide 239] (H-ILHVSFLAE-OH; N-terminus and C-terminus assumed), the “CEM.T2 % Binding” value in test [1] came out at 10%. Further, the “CEM.T2 % Residual Binding” value in test [3] was 0%. Moreover, on HLA-A*0201 [2], the iScore is 0.51. For the same compound, at HLA-A*0201 [4] (setting [6]), the EC50 worked out at 200 nM. Besides, on HLA-A*0201 [5], the “% Binding” value came to 61%.

With `CC(C)C[C@H](NC(=O)[C@@H](N)Cc1ccccc1)C(=O)N[C@@H](C)C(=O)N[C@@H](CCC(=O)O)C(=O)N[C@@H](C)C(=O)N[C@@H](CO)C(=O)N[C@H](C(=O)N[C@@H](CCCNC(=N)N)C(=O)NCC(=O)O)C(C)C` [Peptide 244] (H-FLAEASVRG-OH; N-terminus and C-terminus assumed), the “CEM.T2 % Binding” value in test [1] is given as 12%. Moreover, the “CEM.T2 % Residual Binding” value in test [3] stood at 0%. At HLA-A*0201 [2], the iScore is 0.533. Moreover, the EC50 at HLA-A*0201 [4] (setting [6]) was found to be 700 nM. Also, the “% Binding” value on HLA-A*0201 [5] was found to be 78%.

Regarding `CC[C@H](C)[C@H](NC(=O)[C@H](Cc1c[nH]cn1)NC(=O)[C@H](Cc1c[nH]c2ccccc12)NC(=O)[C@H](CC(C)C)NC(=O)[C@H](CC(N)=O)NC(=O)[C@H](CCC(N)=O)NC(=O)[C@@H](N)CC(=O)O)C(=O)NCC(=O)N[C@@H](CCCNC(=N)N)C(=O)O` [Peptide 255], the “CEM.T2 % Binding” value in test [1] was 6%. Also, the “CEM.T2 % Residual Binding” value in test [3] is recorded as 0%. At HLA-A*0201 [2], the iScore is recorded as 0.539. The EC50 on HLA-A*0201 [4] (setting [6]) is 500 nM. The “% Binding” value on HLA-A*0201 [5] worked out at 62%.

For the compound `CC[C@H](C)[C@H](NC(=O)[C@@H](NC(=O)CNC(=O)[C@@H](NC(=O)[C@@H](NC(=O)[C@@H](N)C(C)C)C(C)C)C(C)C)C(C)C)C(=O)N[C@@H](C)C(=O)N[C@@H](C)C(=O)N[C@@H](CC(C)C)C(=O)O` [Peptide 351, VVVGVIAAL] (H-VVVGVIAAL-OH; N-terminus and C-terminus assumed), the iScore at HLA-A*0201 [2] is 0.784. At HLA-A*0201 [4] (setting [6]), the EC50 stood at 30 nM. Further, on HLA-A*0201 [5], the “% Binding” value came to 58%.

Values taken from patent US9266922B2, “Antigen peptide and uses thereof” (priority 2011, dated 2016).
